Measured values from ChEMBL document CHEMBL1201862, “PubChem BioAssay data set” (2004).
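Assay format: 96-well plates, 48-hour exposure. Abbreviation: GI50, concentration required for 50% inhibition of growth.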 The source made the active and inactive calls. Rule as the data show it: active = GI50 up to about 1.1 µM and inactive = higher.

What was measured:
Assay in all cases: NCI anticancer screen, dose series, 48 h
IGROV-1 = tested on: IGROV-1
K562 = tested on: K562
MDA-MB-231 = tested on: MDA-MB-231
BT-549 = tested on: BT-549
EKVX = tested on: EKVX
MOLT-4 = tested on: MOLT-4
SW-620 = tested on: SW-620
SNB-19 = tested on: SNB-19
OVCAR-3 = tested on: OVCAR-3
SK-MEL-5 = tested on: SK-MEL-5
HT-29 = tested on: HT-29
SR = tested on: SR
RPMI-8226 = tested on: RPMI-8226
Malme-3M = tested on: Malme-3M
SF-268 = tested on: SF-268
COLO 205 = tested on: COLO 205
NCI-H23 = tested on: NCI-H23
NCI/ADR-RES = tested on: NCI/ADR-RES
NCI-H226 = tested on: NCI-H226
SF-295 = tested on: SF-295

Measured: GI50

C[C@]12CC(c3ccccc3O1)C(C(=O)Nc1nc(C34CC5CC(CC(C5)C3)C4)cs1)C(=O)N2 (some centres undefined)
inactive: IGROV-1 75 µM | K562 > 100 µM | MDA-MB-231 > 100 µM | BT-549 > 100 µM | EKVX > 100 µM | MOLT-4 > 100 µM | SW-620 > 100 µM | SNB-19 > 100 µM | OVCAR-3 > 100 µM | SK-MEL-5 > 100 µM | HT-29 > 100 µM | SR > 100 µM | RPMI-8226 > 100 µM | Malme-3M 34.7 µM | SF-268 > 100 µM | COLO 205 > 100 µM | NCI-H23 > 100 µM | NCI/ADR-RES > 100 µM | NCI-H226 > 100 µM

O=C(O)CCc1ccc2c(c1)C(=O)CC2
inactive: IGROV-1 > 100 µM | K562 > 100 µM | MDA-MB-231 80.5 µM | BT-549 > 100 µM | EKVX > 100 µM | MOLT-4 > 100 µM | SW-620 > 100 µM | SNB-19 > 100 µM | OVCAR-3 > 100 µM | SK-MEL-5 > 100 µM | HT-29 > 100 µM | SR > 100 µM | RPMI-8226 > 100 µM | Malme-3M > 100 µM | SF-268 > 100 µM | COLO 205 > 100 µM | NCI-H23 > 100 µM | SF-295 > 100 µM | NCI/ADR-RES > 100 µM | NCI-H226 > 100 µM

C#CCn1ncc2c(SC)ncnc21
inactive: IGROV-1 > 100 µM | K562 > 100 µM | MDA-MB-231 > 100 µM | BT-549 > 100 µM | EKVX 66.4 µM | MOLT-4 > 100 µM | SW-620 > 100 µM | SNB-19 > 100 µM | OVCAR-3 > 100 µM | SK-MEL-5 > 100 µM | HT-29 > 100 µM | SR > 100 µM | RPMI-8226 > 100 µM | Malme-3M > 100 µM | SF-268 > 100 µM | COLO 205 > 100 µM | NCI-H23 > 100 µM | SF-295 > 100 µM | NCI/ADR-RES > 100 µM | NCI-H226 > 100 µM
